Patent publication US7335814B2, “Transgenic cells expressing glucosyltransferase nucleic acids” (The University of York, priority 2000, dated 2008)

What was measured:
Assay type in all cases: biochemical
[1] = target: T1, UGT71C1 (Arabidopsis thaliana, UniProt O82381); test: UGT71C1 glucosyltransferase specific activity towards phenolic compounds (reverse-phase HPLC); conditions: 1 mM phenolic compound, 5 mM UDP-glucose, 50 mM TRIS-HCl pH 7.0, 30° C., 30 min; mean of three replicates ± standard deviation
T1 construct: GST (N); made in house; host or cells: E. coli
T1 sequence (O82381 1-481): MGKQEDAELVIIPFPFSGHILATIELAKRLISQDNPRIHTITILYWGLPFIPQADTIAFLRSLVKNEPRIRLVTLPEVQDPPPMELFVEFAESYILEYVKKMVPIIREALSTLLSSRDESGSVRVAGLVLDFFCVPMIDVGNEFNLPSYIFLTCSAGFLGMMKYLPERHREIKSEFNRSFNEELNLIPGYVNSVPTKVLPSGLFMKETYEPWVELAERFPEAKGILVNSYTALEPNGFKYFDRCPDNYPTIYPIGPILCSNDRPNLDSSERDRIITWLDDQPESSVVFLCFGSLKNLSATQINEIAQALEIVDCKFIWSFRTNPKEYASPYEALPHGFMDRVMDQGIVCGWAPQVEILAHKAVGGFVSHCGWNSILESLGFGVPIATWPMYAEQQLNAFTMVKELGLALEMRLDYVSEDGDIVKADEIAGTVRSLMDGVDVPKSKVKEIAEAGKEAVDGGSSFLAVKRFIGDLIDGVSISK

[2] = target: T2, recombinant GTase A233 (Arabidopsis thaliana, UniProt Q8W491); test: Specific activity of recombinant GTase producing O-glucosides against lignin precursors (HPLC); conditions: 30° C.; ND = not detected
T2 construct: made in house; host or cells: E. coli

[3] = target: T3, recombinant GTase A407 (Arabidopsis thaliana, UniProt O81498); test: as above; conditions: 30° C.; ND = not detected
T3 construct: made in house; host or cells: E. coli
T3 sequence (O81498 1-481): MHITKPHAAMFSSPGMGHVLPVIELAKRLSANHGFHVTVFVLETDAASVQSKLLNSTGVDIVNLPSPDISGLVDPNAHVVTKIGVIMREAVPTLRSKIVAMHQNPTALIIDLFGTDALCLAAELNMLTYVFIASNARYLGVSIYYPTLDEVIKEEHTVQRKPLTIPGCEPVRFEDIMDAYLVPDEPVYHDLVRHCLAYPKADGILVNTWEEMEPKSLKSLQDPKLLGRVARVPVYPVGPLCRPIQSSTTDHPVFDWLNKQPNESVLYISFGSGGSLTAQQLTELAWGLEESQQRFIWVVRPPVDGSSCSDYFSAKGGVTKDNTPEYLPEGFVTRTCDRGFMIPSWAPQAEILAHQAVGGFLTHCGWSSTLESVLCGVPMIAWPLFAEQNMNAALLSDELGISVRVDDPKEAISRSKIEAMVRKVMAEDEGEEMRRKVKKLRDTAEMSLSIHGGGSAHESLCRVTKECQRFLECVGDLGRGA

[4] = target: T4, recombinant GTase A961 (Arabidopsis thaliana, UniProt O82381); test: as above; conditions: 30° C.; ND = not detected
T4 construct: made in house; host or cells: E. coli
T4 sequence (O82381 1-481): T1 sequence (O82381 1-481)

[5] = target: T5, recombinant GTase A962 (Arabidopsis thaliana, UniProt O82382); test: as above; conditions: 30° C.; ND = not detected
T5 construct: made in house; host or cells: E. coli
T5 sequence (O82382 1-474): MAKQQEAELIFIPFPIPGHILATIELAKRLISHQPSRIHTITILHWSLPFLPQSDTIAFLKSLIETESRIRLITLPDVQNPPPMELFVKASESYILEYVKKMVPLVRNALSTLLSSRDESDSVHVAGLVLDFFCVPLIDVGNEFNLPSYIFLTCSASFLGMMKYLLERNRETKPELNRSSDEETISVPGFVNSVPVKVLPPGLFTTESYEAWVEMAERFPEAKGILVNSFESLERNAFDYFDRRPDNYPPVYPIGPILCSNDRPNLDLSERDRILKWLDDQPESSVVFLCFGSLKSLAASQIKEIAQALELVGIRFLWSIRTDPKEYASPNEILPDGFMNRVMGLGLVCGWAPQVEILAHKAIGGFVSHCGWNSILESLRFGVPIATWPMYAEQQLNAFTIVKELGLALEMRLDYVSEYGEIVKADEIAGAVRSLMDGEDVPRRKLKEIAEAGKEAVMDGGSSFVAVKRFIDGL

[6] = target: T6, recombinant GTase A119 (Arabidopsis thaliana, UniProt Q9LVR1); test: as above; conditions: 30° C.; ND = not detected
T6 construct: made in house; host or cells: E. coli
T6 sequence (Q9LVR1 1-481): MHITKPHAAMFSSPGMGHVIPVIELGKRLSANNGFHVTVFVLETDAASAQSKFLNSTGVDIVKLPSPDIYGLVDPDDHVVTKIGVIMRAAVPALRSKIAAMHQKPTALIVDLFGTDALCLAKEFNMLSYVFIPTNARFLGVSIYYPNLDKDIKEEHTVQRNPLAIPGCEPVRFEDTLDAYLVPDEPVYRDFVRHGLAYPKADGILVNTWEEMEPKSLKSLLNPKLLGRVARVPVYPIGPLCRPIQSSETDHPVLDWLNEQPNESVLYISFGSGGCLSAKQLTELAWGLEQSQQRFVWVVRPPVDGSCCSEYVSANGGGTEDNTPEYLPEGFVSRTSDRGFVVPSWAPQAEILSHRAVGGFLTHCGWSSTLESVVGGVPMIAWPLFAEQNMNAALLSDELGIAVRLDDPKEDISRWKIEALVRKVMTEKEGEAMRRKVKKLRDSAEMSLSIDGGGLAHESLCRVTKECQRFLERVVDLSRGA

[7] = target: T7, recombinant GTase A41 (Arabidopsis thaliana, UniProt Q5XF20); test: Specific activity of recombinant GTase producing glucose ester against lignin precursors (HPLC); conditions: 5 mM UDPG, 0.2 μg GTase, 200 μl, 20° C., 30 min
T7 construct: made in house; host or cells: E. coli
T7 sequence (Q5XF20 7-490): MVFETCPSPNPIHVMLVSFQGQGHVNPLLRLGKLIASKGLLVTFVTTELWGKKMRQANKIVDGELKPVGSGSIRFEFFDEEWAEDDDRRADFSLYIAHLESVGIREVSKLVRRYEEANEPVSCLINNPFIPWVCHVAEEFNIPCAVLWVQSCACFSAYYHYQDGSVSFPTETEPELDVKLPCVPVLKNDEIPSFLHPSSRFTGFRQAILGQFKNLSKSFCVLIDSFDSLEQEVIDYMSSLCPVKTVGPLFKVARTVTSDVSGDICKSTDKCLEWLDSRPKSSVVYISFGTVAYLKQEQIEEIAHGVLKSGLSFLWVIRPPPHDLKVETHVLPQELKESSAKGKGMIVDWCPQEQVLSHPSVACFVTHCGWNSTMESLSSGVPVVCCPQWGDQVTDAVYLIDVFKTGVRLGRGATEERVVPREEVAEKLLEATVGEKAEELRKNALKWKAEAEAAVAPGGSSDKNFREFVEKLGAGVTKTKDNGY

[8] = target: T8, recombinant GTase A43 (Arabidopsis thaliana, UniProt O23402); test: as above; conditions: 0.5 ml of potential substrates, 5 mM UDPG, 0.2 μg GTase, 200 μl, 20° C., 30 min
T8 construct: made in house; host or cells: E. coli

[9] = target: T9, recombinant GTase A062 (Arabidopsis thaliana, UniProt Q9LR44); test: as above; conditions: 0.5 ml of potential substrates, 5 mM UDPG, 0.2 μg GTase, 200 μl, 20° C., 30 min
T9 construct: made in house; host or cells: E. coli
T9 sequence (Q9LR44 1-469): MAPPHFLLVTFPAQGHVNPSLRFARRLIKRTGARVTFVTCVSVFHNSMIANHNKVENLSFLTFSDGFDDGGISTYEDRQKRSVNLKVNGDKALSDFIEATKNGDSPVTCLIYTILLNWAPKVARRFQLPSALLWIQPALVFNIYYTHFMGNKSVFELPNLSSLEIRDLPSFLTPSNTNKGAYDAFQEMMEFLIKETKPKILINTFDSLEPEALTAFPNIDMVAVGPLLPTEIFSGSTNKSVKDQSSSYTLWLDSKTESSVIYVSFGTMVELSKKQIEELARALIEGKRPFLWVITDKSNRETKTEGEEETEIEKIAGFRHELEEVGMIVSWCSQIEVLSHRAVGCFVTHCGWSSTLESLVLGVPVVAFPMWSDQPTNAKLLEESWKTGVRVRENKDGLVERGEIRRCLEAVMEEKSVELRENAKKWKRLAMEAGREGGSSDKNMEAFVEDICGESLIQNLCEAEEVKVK

[10] = target: T10, recombinant GTase A911 (Arabidopsis thaliana, UniProt O22182); test: as above; parameters: made in house; host or cells: E. coli; conditions: 0.5 ml of potential substrates, 5 mM UDPG, 0.2 μg GTase, 200 μl, 20° C., 30 min
T10 sequence (O22182 1-456): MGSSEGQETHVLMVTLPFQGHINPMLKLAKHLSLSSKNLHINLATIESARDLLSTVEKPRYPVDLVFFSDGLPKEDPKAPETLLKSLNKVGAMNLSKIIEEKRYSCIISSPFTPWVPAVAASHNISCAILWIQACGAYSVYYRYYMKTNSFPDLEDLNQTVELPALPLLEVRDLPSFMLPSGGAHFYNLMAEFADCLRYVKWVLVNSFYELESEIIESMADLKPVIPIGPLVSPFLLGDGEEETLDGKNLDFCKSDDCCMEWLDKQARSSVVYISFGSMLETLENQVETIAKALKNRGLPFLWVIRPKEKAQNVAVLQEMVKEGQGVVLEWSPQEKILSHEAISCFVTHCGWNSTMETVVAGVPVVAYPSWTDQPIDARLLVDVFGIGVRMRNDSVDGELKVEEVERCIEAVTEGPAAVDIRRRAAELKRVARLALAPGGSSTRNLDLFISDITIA

Compound | Specific activity (UGT71C1) [1] [nkat/mg] | Specific activity of A961 (substrate converted to 4-O-glucoside) [4] [nkat/mg] | Specific activity of A962 (substrate converted to 4-O-glucoside) [5] [nkat/mg] | also measured
O=C(O)c1ccc(O)c(O)c1 [3,4-dihydroxybenzoic acid] | 0 | – | – | –
O=C(O)c1ccc(O)cc1 [4-hydroxybenzoic acid] | 0 | – | – | –
COc1cc(/C=C/CO)ccc1O [Coniferyl alcohol, coniferyl alcohol] | – | 0.57 | 0.49 | Specific activity of A233 (substrate converted to 4-O-glucoside) [2]: 0.46 nkat/mg; Specific activity of A407 (substrate converted to 4-O-glucoside) [3]: 2.78 nkat/mg
COc1cc(/C=C/C=O)ccc1O [Coniferyl aldehyde, coniferyl aldehyde] | – | 0.16 | 0.34 | Specific activity of A119 (substrate converted to 4-O-glucoside) [6]: 1.08 nkat/mg
O=C1C[C@@H](c2ccc(O)c(O)c2)Oc2cc(O)cc(O)c21 [Eriodictyol] | 0 | – | – | –
O=c1ccc2cc(O)c(O)cc2o1 [Esculetin] | 34.8 ± 4.2 | – | – | –
O=c1cc(-c2ccc(O)c(O)c2)oc2cc(O)cc(O)c12 [Luteolin] | 0.7 ± 0.1 | – | – | –
O=c1c(O)c(-c2ccc(O)c(O)c2)oc2cc(O)cc(O)c12 [Quercetin] | 1.4 ± 0.4 | – | – | –
COc1cc2ccc(=O)oc2cc1O [Scopoletin] | 29.4 ± 3.9 | – | – | –
COc1cc(/C=C/C(=O)O)cc(OC)c1O [Sinapic acid, sinapic acid] | 0 | 0.01 | 0.01 | Specific activity of A41 (substrate converted to glucose ester) [7]: 5.35 nkat/mg; Specific activity of A43 (substrate converted to glucose ester) [8]: 0.05 nkat/mg; Specific activity of A062 (substrate converted to glucose ester) [9]: 0.1 nkat/mg; Specific activity of A233 (substrate converted to 4-O-glucoside) [2]: 0.39 nkat/mg; Specific activity of A407 (substrate converted to 4-O-glucoside) [3]: 65.39 nkat/mg; Specific activity of A911 (substrate converted to glucose ester) [10]: 0.15 nkat/mg
O=C(O)/C=C/c1cccc(O)c1 [m-Coumaric acid] | 1.2 ± 0.2 | – | – | –
O=C(O)/C=C/c1ccccc1O [o-Coumaric acid] | 1.5 ± 0.2 | – | – | –
O=C/C=C/c1ccc(O)cc1 [p-coumaryl aldehyde] | – | 0.01 | 0.02 | Specific activity of A119 (substrate converted to 4-O-glucoside) [6]: 0.03 nkat/mg
COc1cc(/C=C/CO)cc(OC)c1O [sinapyl alcohol] | – | 0.35 | 0.45 | Specific activity of A233 (substrate converted to 4-O-glucoside) [2]: 0.05 nkat/mg; Specific activity of A119 (substrate converted to 4-O-glucoside) [6]: 126.16 nkat/mg; Specific activity of A407 (substrate converted to 4-O-glucoside) [3]: 114.76 nkat/mg
COc1cc(/C=C/C=O)cc(OC)c1O [sinapyl aldehyde] | – | 0.57 | 0.50 | Specific activity of A119 (substrate converted to 4-O-glucoside) [6]: 4.55 nkat/mg
Catechin | 0 | – | – | –
